Assays:
BRD4-BD1 (44-164) = BRD4-BD1 (44-164) (Homo sapiens (Human), UniProt O60885); experiment: Alphascreen binding assay BRD4-BD1; settings: BRD4(1) H4; read-out: Biochemical activity (IC50 μM) BRD4(1) H4
Procedure, shortened: (§1)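 In this competition format, compounds displace a biotinylated tetra-acetyl H4 peptide from E. coli-expressed human BRD4 bromodomain constructs captured on nickel chelate beads. The reaction runs at pH 7.5 with 2 mM DTT and detergent for 1 h at room temperature before a 30 min bead step.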

BRD4-BD12 (1-477) = BRD4-BD12 (1-477) (Homo sapiens (Human), UniProt O60885); experiment: Alphascreen binding assay BRD4-BD12; settings: BRD4(1 2) H4; read-out: Biochemical activity (IC50 μM) BRD4(1 2) H4
Procedure, shortened: as §1

MV-4-11 cells = experiment: Oncology cell growth assay MV-4-11 (CellTiter Glo); assay type: cell-based; settings: Homo sapiens, MV4-11, 72 h; read-out: Cell activity (IC50 μM) MV-4-11 3d-Growth
Procedure, shortened: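 Growth read by CellTiter Glo luminescence after 72 h compound treatment of MLL-AF4-bearing MV-4-11 cells (3000/well). Titration: 8 points, 1:3 steps, maximum 10 μM, 0.2% DMSO final. Data normalized to DMSO wells, four-parameter fit gives pIC50.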

bromodomain = experiment: at least one of the bromodomain cell assays of Example 57; assay type: cell-based; settings: at least one of the bromodomain cell assays described in Example 57; read-out: IC50 in at least one of the bromodomain cell assays

SMILES | IC50 (BRD4-BD1 (44-164)) | IC50 (BRD4-BD12 (1-477)) | IC50 (MV-4-11 cells) | IC50 (bromodomain)
Cc1noc(C)c1-c1cnc2c(-c3cnn(C)c3)cn(C(CC#N)c3ccccc3)c2c1 (centres unmarked) [P-0331, 3-[6-(3,5-dimethylisoxazol-4-yl)-3-(1-methylpyrazol-4-yl)pyrrolo[3,2-b]pyridin-1-yl]-3-phenyl-propanenitrile] | < 1 µM | < 1 µM | < 1 µM | < 10000 nM
Cc1noc(C)c1-c1cnc2c(Br)cn(C(CC#N)C3CCCC3)c2c1 (centres unmarked) [P-0280, 3-[3-bromo-6-(3,5-dimethylisoxazol-4-yl)pyrrolo[3,2-b]pyridin-1-yl]-3-cyclopentyl-propanenitrile] | < 1 µM | < 1 µM | < 1 µM | < 10000 nM
Cc1noc(C)c1-c1cnc2c(-c3cnn(CC(F)(F)F)c3)cn(C(C)c3ccccn3)c2c1 (centres unmarked) [P-0320, 3,5-dimethyl-4-[1-[1-(2-pyridyl)ethyl]-3-[1-(2,2,2-trifluoroethyl)pyrazol-4-yl]pyrrolo[3,2-b]pyridin-6-yl]isoxazole] | < 1 µM | < 1 µM | < 1 µM | < 10000 nM
[2H]C([2H])(C1CCC(F)(F)CC1)n1cc(C#CCO)c2ncc(-c3c(C)noc3C)cc21 [P-0370, 3-[1-[dideuterio-(4,4-difluorocyclohexyl)methyl]-6-(3,5-dimethylisoxazol-4-yl)pyrrolo[3,2-b]pyridin-3-yl]prop-2-yn-1-ol] | < 1 µM | < 1 µM | < 1 µM | < 10000 nM
Cc1noc(C)c1-c1cnc2c(-c3ccc(Cl)cc3)cn(C(C)c3ccccc3)c2c1 (centres unmarked) [P-0269, 4-[3-(4-chlorophenyl)-1-(1-phenylethyl)pyrrolo[3,2-b]pyridin-6-yl]-3,5-dimethyl-isoxazole] | < 1 µM | < 1 µM | 1 to 10 µM | < 10000 nM
Cc1noc(C)c1-c1cnc2c(-c3c(C)nn(C)c3C)cn(C(C)c3ccccc3)c2c1 (centres unmarked) [P-0300, 3,5-dimethyl-4-[1-(1-phenylethyl)-3-(1,3,5-trimethylpyrazol-4-yl)pyrrolo[3,2-b]pyridin-6-yl]isoxazole] | < 1 µM | < 1 µM | < 1 µM | < 10000 nM
Cc1noc(C)c1-c1cnc2c(Br)cn(C(CC#N)C3CC3)c2c1 (centres unmarked) [P-0308, 3-[3-bromo-6-(3,5-dimethylisoxazol-4-yl)pyrrolo[3,2-b]pyridin-1-yl]-3-cyclopropxl-propanenitrile] | < 1 µM | < 1 µM | < 1 µM | < 10000 nM
Cc1onc(NC(=O)OC(C)(C)C)c1-c1cnc2ccn(CC3CCC(F)(F)CC3)c2c1 [P-0323, tert-butyl N-[4-[1-[(4,4-difluorocyclohexyl)methyl]pyrrolo[3,2-b]pyridin-6-yl]-5-methyl-isoxazol-3-yl]carbamate] | 10 to 200 µM | < 1 µM | 10 to 200 µM | < 10000 nM
Cc1oncc1-c1cnc2ccn(CC3CCC(F)(F)CC3)c2c1 [P-0283, 4-[1-[(4,4-difluorocyclohexyl)methyl]pyrrolo[3,2-b]pyridin-6-yl]-5-methyl-isoxazole] | 1 to 10 µM | 1 to 10 µM | 1 to 10 µM | < 10000 nM
[2H]C([2H])(C1CCC(F)(F)CC1)n1cc(I)c2ncc(-c3c(C)noc3C)cc21 [P-0262, 4-[1-[dideuterio-(4,4-difluorocyclohexyl)methyl]-3-iodo-pyrrolo[3,2-b]pyridin-6-yl]-3,5-dimethyl-isoxazole] | < 1 µM | < 1 µM | < 1 µM | < 10000 nM
Cc1noc(C)c1-c1cnc2c(-c3ccc(C(=O)O)cc3)cn(CC3CCC(F)(F)CC3)c2c1 [P-0324, 4-[1-[(4,4-difluorocyclohexyl)methyl]-6-(3,5-dimethylisoxazol-4-yl)pyrrolo[3,2-b]pyridin-3-yl]benzoic acid] | < 1 µM | < 1 µM | < 1 µM | < 10000 nM
[2H]C([2H])(C1CC(F)(F)C1)n1cc(-c2cnn(CC(F)(F)F)c2)c2ncc(-c3c(C)noc3C)cc21 [P-0257, 4-[1-[dideuterio-(3,3-difluorocyclobutyl)methyl]-3-[1-(2,2,2-trifluoroethyl)pyrazol-4-yl]pyrrolo[3,2-b]pyridin-6-yl]-3,5-dimethyl-isoxazole] | < 1 µM | < 1 µM | < 1 µM | < 10000 nM
Cc1noc(C)c1-c1cnc2c(-c3cnn(CC(F)(F)F)c3)cn(C(CC#N)C3CCCC3)c2c1 (centres unmarked) [P-0266, 3-cyclopentyl-3-[6-(3,5-dimethylisoxazol-4-yl)-3-[1-(2,2,2-trifluoroethyl)pyrazol-4-yl]pyrrolo[3,2-b]pyridin-1-vl]propanenitrile] | < 1 µM | < 1 µM | < 1 µM | < 10000 nM
Cc1noc(C)c1-c1cnc2c(Br)cn(CC3CCC(F)(F)CC3)c2c1 [P-0281, 4-[3-bromo-1-[(4,4-difluorocyclohexyl)methyl]pyrrolo[3,2-b]pyridin-6-yl]-3,5-dimethyl-isoxazole] | < 1 µM | < 1 µM | < 1 µM | < 10000 nM
Cc1noc(C)c1-c1cnc2c(-c3cnn(CC(F)(F)F)c3)cn(Cc3ccccc3)c2c1 [P-0317, 4-[1-benzyl-3-[1-(2,2,2-trifluoroethyl)pyrazol-4-yl]pyrrolo[3,2-b]pyridin-6-yl]-3,5-dimethyl-isoxazole] | < 1 µM | < 1 µM | < 1 µM | < 10000 nM
Cc1noc(C)c1-c1cnc2c(-c3cnc(N)nc3)cn(C(C)c3ccccc3)c2c1 (centres unmarked) [P-0277, 5-[6-(3,5-dimethylisoxazol-4-yl)-1-(1-phenylethyl)pyrrolo[3,2-b]pyridin-3-yl]pyrimidin-2-amine] | < 1 µM | < 1 µM | < 1 µM | < 10000 nM
Cc1nnn(C)c1-c1cnc2c(-c3cnn(CC(F)(F)F)c3)cn(CC3(F)CCC(F)(F)CC3)c2c1 [P-0372, 6-(3,5-dimethyltriazol-4-yl)-1-[(1,4,4-trifluorocyclohexyl)methyl]-3-[1-(2,2,2-trifluoroethyl)pyrazol-4-yl]pyrrolo[3,2-b]pyridine] | < 1 µM | < 1 µM | < 1 µM | < 10000 nM
Cc1noc(C)c1-c1cnc2c(-c3ccc(N)nc3)cn(C(C)c3ccccc3)c2c1 (centres unmarked) [P-0276, 5-[6-(3,5-dimethylisoxazol-4-yl)-1-(1-phenylethyl)pyrrolo[3,2-b]pyridin-3-yl]pyridin-2-amine] | < 1 µM | < 1 µM | < 1 µM | < 10000 nM
Cc1noc(C)c1-c1cnc2c(-c3cnn(CC(F)(F)F)c3)cn(C(CC#N)c3ccccc3)c2c1 (centres unmarked) [P-0332, 3-[6-(3,5-dimethylisoxazol-4-yl)-3-[1-(2,2,2-trifluoroethyl)pyrazol-4-yl]pyrrolo[3,2-b]pyridin-1-yl]-3-phenyl-propanenitrile] | < 1 µM | < 1 µM | < 1 µM | < 10000 nM
Cc1noc(C)c1-c1cnc2c(-c3cnn(CC(C)C)c3)cn(CC3CCC(F)(F)CC3)c2c1 [P-0297, 4-[1-[(4,4-difluorocyclohexyl)methyl]-3-(1-isobutylpyrazol-4-yl)pyrrolo[3,2-b]pyridin-6-yl]-3,5-dimethyl-isoxazole] | < 1 µM | < 1 µM | < 1 µM | < 10000 nM
